Experimental data published in publication PMC4859512, “Polyamino-Isoprenic Derivatives Block Intrinsic Resistance of P. aeruginosa to Doxycycline and Chloramphenicol In Vitro” (PLoS ONE, 2016).
Values after ≈ are worked out from the molar mass of the structure shown. Residues, ends and D or L forms follow the SMILES beside them. *: point of attachment. βNA = c1ccc2cc(N*)ccc2c1

Columns and labels:
[1] = test system: P. aeruginosa PA01 (wt); test: Antibiotic susceptibility testing (broth micro-dilution MIC), strain PA01; format: cell-based, Pseudomonas aeruginosa; details: for MIC of Amikacin in the presence of the compound / MIC of Ceftazidime in the presence of the compound / MIC of Ciprofloxacin in the presence of the compound / MIC of Ticarcillin in the presence of the compound: PA01
Method: (§1) Experiments were performed on the BAC-SCREEN platform of the UMR-MD1, with a Freedom EVO 150 liquid handling system (Tecan, Lyon, France).
(§2) The same experiment was performed using chloramphenicol (4 mg/L) in combination with 3 (10 μM final concentration). […] These experiments were performed to study the effect of our compounds on the natural resistance of P. aeruginosa. […] Experiments were performed with the ß-lactams ceftazidime and ticarcillin and ciprofloxacin and amikacin.

[2] = test system: P. aeruginosa PA01; test: Comparison of efficiency between compounds and PAßN (compound gradient with 2 mg/L doxycycline); format: cell-based, Pseudomonas aeruginosa; details: PA01, doxycycline 2 mg/L, 18 h
Method: Serial dilutions of each compound (from 270 μM to 0.95 μM for PAßN and from 135 μM to 0.06 μM for 3) were prepared in microplates. Doxycycline (2 mg/L) was then added to each well before inoculation of bacteria (5x10^5 cfu/mL). Optical density (600 nm) was measured after 18 hours at 37°C. Only the relevant part of the graphs are shown. Experiments were performed in triplicate.
First, we performed a checkerboard assay to analyze the synergy between doxycycline and the polyamino-isoprenic compound and between doxycycline and PAβN. For both, compound 3 and PAβN we observed a synergistic inhibition of growth when combined with doxycycline with a FIC Index of 0.09 (S2 Table). […] PAßN is generally used at a concentration greater than 10 μM to inhibit the resistance of P. aeruginosa with respect to various antibiotics, and, to our knowledge, no data have been reported in the literature on its use in combination with doxycycline. The percentage of growth inhibition was monitored as a function of compound concentration, and the results are presented in Fig 3.

[3] = test system: P. aeruginosa PT629 (Mex AB overproducer); test: Antibiotic susceptibility testing (broth micro-dilution MIC), strain PT629; format: cell-based, Pseudomonas aeruginosa; details: for MIC of Amikacin in the presence of the compound / MIC of Ceftazidime in the presence of the compound / MIC of Ciprofloxacin in the presence of the compound / MIC of Ticarcillin in the presence of the compound: PT629
Method: as §1
(§3) We concluded that compound 3 was the best compound and suitable for a more detailed study. The same experiment was performed using chloramphenicol (4 mg/L) in combination with 3 (10 μM final concentration). Amongst the 20 clinical isolates, the growth of 15 (75%) was impaired, while 5 (25%) were resistant (data not shown). These experiments were performed to study the effect of our compounds on the natural resistance of P. aeruginosa. In addition, we were wondering if compound 3 could also increase susceptibility to other antibiotic families including ß-Lactams, fluoroquinolones and aminoglycosides, that are representative of the main classes of anti-pseudomonal agents. Experiments were performed with the ß-lactams ceftazidime and ticarcillin and ciprofloxacin and amikacin. […] . […] To better characterize compound 3, we first searched for the minimum concentration of compound that allowed killing of bacteria by doxycycline, and PAßN was used as the reference molecule.

[4] = test system: P. aeruginosa PA01 ERY^R (Mex CD overproducer); test: microbe, parasite or virus in culture; format: cell-based, Pseudomonas aeruginosa; details: for MIC of Amikacin in the presence of the compound / MIC of Ceftazidime in the presence of the compound / MIC of Ciprofloxacin in the presence of the compound / MIC of Ticarcillin in the presence of the compound: PA01 ERY R
Method: as §1, §2

[5] = test system: P. aeruginosa PA0-7H (Mex EF overproducer); test: Antibiotic susceptibility testing (broth micro-dilution MIC), strain PA0-7H; format: cell-based, Pseudomonas aeruginosa; details: for MIC of Amikacin in the presence of the compound / MIC of Ceftazidime in the presence of the compound / MIC of Ciprofloxacin in the presence of the compound / MIC of Ticarcillin in the presence of the compound: PA0-7H
Method: as §1, §3

[6] = test system: P. aeruginosa PA01; test: Checkerboard assay with doxycycline; format: cell-based, Pseudomonas aeruginosa; details: PA01
Method: Serial two-fold dilutions of antimicrobial agents were mixed together in a microtiter plate. The range of concentration of each drug was twice the MIC, down to the eleventh serial two-fold dilutions below this amount. Doxycycline was serially diluted along the X-axis, and the polyamino-isoprenic compound or PAßN was diluted along the Y-axis as indicated. Each well was inoculated with a bacterial inoculum of 5 x 10^5 CFU/ml, and the plates were incubated at 37°C for 18 h under aerobic conditions. Each plate also contained a row and a column in which a serial dilution of polyamino-isoprenic compound or doxycycline, respectively, was present alone to determine the MIC. The FIC index was calculated as follows: FIC index = FIC A + FIC B, where FIC A is the MIC of drug A in the combination/MIC of drug A alone and FIC B is the MIC of drug B in the combination/MIC of drug B alone. The combination was considered synergistic when the FIC index is ≤0.5, and antagonistic when the FIC index is > 4 [26].

[7] = test system: P. aeruginosa CMZ091 (Mex XY overproducer); test: Antibiotic susceptibility testing (broth micro-dilution MIC), strain CMZ091; format: cell-based, Pseudomonas aeruginosa; details: for MIC of Amikacin in the presence of the compound / MIC of Ceftazidime in the presence of the compound / MIC of Ciprofloxacin in the presence of the compound / MIC of Ticarcillin in the presence of the compound: CMZ091
Method: as §1, §3

[8] = test system: P. aeruginosa FB1 (Mex B deleted); test: Antibiotic susceptibility testing (broth micro-dilution MIC), strain FB1; format: cell-based; details: Pseudomonas aeruginosa, read-out: Minimal Inhibitory Concentration
Method: as §1

[9] = doxycycline MIC in the combination 0.125 µg/ml
[10] = doxycycline MIC in the combination 0.25 µg/ml
[11] = doxycycline MIC in the combination 0.5 µg/ml
[12] = doxycycline MIC in the combination 1 µg/ml
[13] = doxycycline MIC in the combination 2 µg/ml
[14] = doxycycline MIC in the combination 4 µg/ml
[15] = doxycycline MIC in the combination 8 µg/ml
[16] = doxycycline MIC in the combination 16 µg/ml
[17] = Pseudomonas aeruginosa, read-out: Minimal Inhibitory Concentration

`NC(N)=NCCC[C@H](NC(=O)[C@@H](N)Cc1ccccc1)C(=O)Nc1ccc2ccccc2c1` [PAßN, Phenylalanine-Arginine Beta-Naphthylamide, reference compound] (H-Phe-Arg-βNA) was tested, and the “MIC of Amikacin in the presence of the compound” value (from here on “MIC of Amikacin”) ([1]; compound 10µM) was 16 µg/mL, the “MIC of Ceftazidime in the presence of the compound” value (“MIC of Ceftazidime” for short) ([1]; compound 10µM) was 2 µg/mL and the “MIC of Ciprofloxacin in the presence of the compound” value (“MIC of Ciprofloxacin” below) ([1]; compound 10µM) was 0.125 µg/mL. The “MIC of Ticarcillin in the presence of the compound” value (“MIC of Ticarcillin” for short) ([1]; compound 10µM) was 32 µg/mL, the “MIC of Amikacin” value ([1]; compound 30µM) was 16 µg/mL and the “MIC of Ceftazidime” value ([1]; compound 30µM) was 1 µg/mL. The “MIC of Ciprofloxacin” value ([1]; compound 30µM) was no more than 0.06 µg/mL, the “MIC of Ticarcillin” value ([1]; compound 30µM) was 32 µg/mL and the “concentration needed to inhibit growth in the presence of doxycycline” value [2] was no less than 15.6 mg/L. The “concentration needed to inhibit growth in the presence of doxycycline” value ([2]; graphically determined on Fig 3) was no less than 30 µM, the “MIC of Amikacin” value ([3]; compound 10µM) was 4 µg/mL and the “MIC of Ceftazidime” value ([3]; compound 10µM) was 8 µg/mL. The “MIC of Ciprofloxacin” value ([3]; compound 10µM) was 0.5 µg/mL, the “MIC of Ticarcillin” value ([3]; compound 10µM) was greater than 64 µg/mL and the “MIC of Amikacin” value ([3]; compound 30µM) was 4 to 8 µg/mL. For the same compound, the “MIC of Ceftazidime” value ([3]; compound 30µM) was 2 to 4 µg/mL, the “MIC of Ciprofloxacin” value ([3]; compound 30µM) was 0.5 µg/mL and the “MIC of Ticarcillin” value ([3]; compound 30µM) was greater than 64 µg/mL. For the same compound, the “MIC of Amikacin” value ([4]; compound 10µM) was 2 µg/mL, the “MIC of Ceftazidime” value ([4]; compound 10µM) was 2 µg/mL and the “MIC of Ciprofloxacin” value ([4]; compound 10µM) was 0.125 µg/mL. The “MIC of Ticarcillin” value ([4]; compound 10µM) was 32 µg/mL, the “MIC of Amikacin” value ([4]; compound 30µM) was 2 µg/mL and the “MIC of Ceftazidime” value ([4]; compound 30µM) was 2 µg/mL. The “MIC of Ciprofloxacin” value ([4]; compound 30µM) was no more than 0.06 µg/mL, the “MIC of Ticarcillin” value ([4]; compound 30µM) was 32 µg/mL and the “MIC of Amikacin” value ([5]; compound 10µM) was 4 µg/mL. For the same compound, the “MIC of Ceftazidime” value ([5]; compound 10µM) was 1 µg/mL, the “MIC of Ciprofloxacin” value ([5]; compound 10µM) was 4 µg/mL and the “MIC of Ticarcillin” value ([5]; compound 10µM) was 8 µg/mL. For the same compound, the “MIC of Amikacin” value ([5]; compound 30µM) was 4 µg/mL, the “MIC of Ceftazidime” value ([5]; compound 30µM) was 1 µg/mL and the “MIC of Ciprofloxacin” value ([5]; compound 30µM) was 4 µg/mL. The “MIC of Ticarcillin” value ([5]; compound 30µM) was 8 µg/mL, the “Concentration of compound associated” value [6, 9] was 128 µM and the Effect [6, 9] was “Synergistic (synergistic when the FIC index is ≤0.5)”. The FIC index [6, 9] was 0.13, the “Concentration of compound associated” value [6, 10] was 32 µM and the Effect [6, 10] was “Synergistic (synergistic when the FIC index is ≤0.5)”. The FIC index [6, 10] was 0.04, the “Concentration of compound associated” value [6, 11] was 32 µM and the Effect [6, 11] was “Synergistic (synergistic when the FIC index is ≤0.5)”. For the same compound, the FIC index [6, 11] was 0.05, the “Concentration of compound associated” value [6, 12] was 32 µM and the Effect [6, 12] was “Synergistic (synergistic when the FIC index is ≤0.5)”. The FIC index [6, 12] was 0.06, the “Concentration of compound associated” value [6, 13] was 32 µM and the Effect [6, 13] was “Synergistic (synergistic when the FIC index is ≤0.5)”. The FIC index [6, 13] was 0.09, the “Concentration of compound associated” value [6, 14] was 8 µM and the Effect [6, 14] was “Synergistic (synergistic when the FIC index is ≤0.5)”. For the same compound, the FIC index [6, 14] was 0.13, the “Concentration of compound associated” value [6, 15] was 4 µM and the Effect [6, 15] was “Synergistic (synergistic when the FIC index is ≤0.5)”. The “Concentration of compound associated” value [6, 16] was 2 µM, the Effect [6, 16] was “Synergistic (synergistic when the FIC index is ≤0.5)” and the FIC index [6, 16] was 0.5. For the same compound, the “FIC index” value ([6]; combination with doxycycline) was 0.09, the “MIC of Amikacin” value ([7]; compound 10µM) was 64 µg/mL and the “MIC of Ceftazidime” value ([7]; compound 10µM) was 2 µg/mL. For the same compound, the “MIC of Ciprofloxacin” value ([7]; compound 10µM) was 0.5 µg/mL, the “MIC of Ticarcillin” value ([7]; compound 10µM) was 16 to 32 µg/mL and the “MIC of Amikacin” value ([7]; compound 30µM) was 32 to 64 µg/mL. The “MIC of Ceftazidime” value ([7]; compound 30µM) was 2 µg/mL, the “MIC of Ciprofloxacin” value ([7]; compound 30µM) was 0.25 µg/mL and the “MIC of Ticarcillin” value ([7]; compound 30µM) was 16 to 32 µg/mL.
Compound `O=C(N[C@H](CO)[C@H](O)c1ccc([N+](=O)[O-])cc1)C(Cl)Cl` [chloramphenicol] has an MIC [1, 17] of 256 µg/mL, an MIC [3, 17] of 512 µg/mL and an MIC [8] of 8 µg/mL (≈ 24.8 µM). For the same compound, the MIC [4, 17] was 256 µg/mL, the MIC [5, 17] was greater than 1020 µg/mL and the MIC [7, 17] was 256 µg/mL.
